The values below come from ChEMBL document CHEMBL1135889, “Novel 4-anilinoquinazolines with C-7 basic side chains: design and structure activity relationship of a series of potent, orally active, VEGF receptor tyrosine kinase inhibitors” (J Med Chem, 2002).

For orientation: IC50 means the point on the concentration scale where inhibition reaches its midpoint. As a reminder, the logD is the decadic logarithm of the distribution of all forms, ionised or not, between an organic phase and buffer at a given pH. A high value points to higher lipophilicity. Usually pKa stands for the negative logarithm of the acid dissociation constant. Low values mean a stronger acid or weaker base, high ones a weaker acid or stronger base. The solubility is the dissolved amount per volume that the medium holds. Low values mean a poorly soluble substance, high ones a readily soluble substance.

For data set [1], the target named is Fibroblast growth factor receptor 1 (Homo sapiens, UniProt P11362).
Chain of Fibroblast growth factor receptor 1 (P11362 whole entry): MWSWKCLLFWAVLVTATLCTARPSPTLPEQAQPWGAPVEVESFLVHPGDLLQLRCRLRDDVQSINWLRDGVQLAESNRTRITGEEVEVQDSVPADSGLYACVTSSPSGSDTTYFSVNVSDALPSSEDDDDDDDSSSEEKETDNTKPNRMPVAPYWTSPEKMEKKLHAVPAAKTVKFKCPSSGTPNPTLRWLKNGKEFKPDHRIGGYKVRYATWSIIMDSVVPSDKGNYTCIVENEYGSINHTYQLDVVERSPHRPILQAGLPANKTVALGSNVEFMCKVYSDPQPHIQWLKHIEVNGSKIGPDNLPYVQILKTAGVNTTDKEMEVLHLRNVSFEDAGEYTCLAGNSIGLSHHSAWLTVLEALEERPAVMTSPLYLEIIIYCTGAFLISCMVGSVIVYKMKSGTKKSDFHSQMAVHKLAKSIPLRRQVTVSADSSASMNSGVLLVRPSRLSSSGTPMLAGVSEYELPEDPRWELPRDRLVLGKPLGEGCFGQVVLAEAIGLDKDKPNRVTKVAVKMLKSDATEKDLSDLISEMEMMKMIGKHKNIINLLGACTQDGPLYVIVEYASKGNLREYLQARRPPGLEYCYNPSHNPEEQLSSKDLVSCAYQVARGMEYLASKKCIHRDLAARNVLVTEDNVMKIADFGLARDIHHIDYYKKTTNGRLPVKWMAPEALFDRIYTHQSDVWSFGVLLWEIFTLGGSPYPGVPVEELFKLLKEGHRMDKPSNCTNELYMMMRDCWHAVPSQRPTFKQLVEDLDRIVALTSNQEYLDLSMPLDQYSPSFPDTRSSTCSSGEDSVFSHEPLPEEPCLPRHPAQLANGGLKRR
Description: Inhibition fibroblast growth factor receptor TK kinase activity at a concentration of 2 uM
The target in data set [2] is Epidermal growth factor receptor (Homo sapiens, UniProt P00533). In words: Inhibition of epidermal growth factor receptor kinase activity […] of ATP.
Chain of Epidermal growth factor receptor (P00533 whole entry): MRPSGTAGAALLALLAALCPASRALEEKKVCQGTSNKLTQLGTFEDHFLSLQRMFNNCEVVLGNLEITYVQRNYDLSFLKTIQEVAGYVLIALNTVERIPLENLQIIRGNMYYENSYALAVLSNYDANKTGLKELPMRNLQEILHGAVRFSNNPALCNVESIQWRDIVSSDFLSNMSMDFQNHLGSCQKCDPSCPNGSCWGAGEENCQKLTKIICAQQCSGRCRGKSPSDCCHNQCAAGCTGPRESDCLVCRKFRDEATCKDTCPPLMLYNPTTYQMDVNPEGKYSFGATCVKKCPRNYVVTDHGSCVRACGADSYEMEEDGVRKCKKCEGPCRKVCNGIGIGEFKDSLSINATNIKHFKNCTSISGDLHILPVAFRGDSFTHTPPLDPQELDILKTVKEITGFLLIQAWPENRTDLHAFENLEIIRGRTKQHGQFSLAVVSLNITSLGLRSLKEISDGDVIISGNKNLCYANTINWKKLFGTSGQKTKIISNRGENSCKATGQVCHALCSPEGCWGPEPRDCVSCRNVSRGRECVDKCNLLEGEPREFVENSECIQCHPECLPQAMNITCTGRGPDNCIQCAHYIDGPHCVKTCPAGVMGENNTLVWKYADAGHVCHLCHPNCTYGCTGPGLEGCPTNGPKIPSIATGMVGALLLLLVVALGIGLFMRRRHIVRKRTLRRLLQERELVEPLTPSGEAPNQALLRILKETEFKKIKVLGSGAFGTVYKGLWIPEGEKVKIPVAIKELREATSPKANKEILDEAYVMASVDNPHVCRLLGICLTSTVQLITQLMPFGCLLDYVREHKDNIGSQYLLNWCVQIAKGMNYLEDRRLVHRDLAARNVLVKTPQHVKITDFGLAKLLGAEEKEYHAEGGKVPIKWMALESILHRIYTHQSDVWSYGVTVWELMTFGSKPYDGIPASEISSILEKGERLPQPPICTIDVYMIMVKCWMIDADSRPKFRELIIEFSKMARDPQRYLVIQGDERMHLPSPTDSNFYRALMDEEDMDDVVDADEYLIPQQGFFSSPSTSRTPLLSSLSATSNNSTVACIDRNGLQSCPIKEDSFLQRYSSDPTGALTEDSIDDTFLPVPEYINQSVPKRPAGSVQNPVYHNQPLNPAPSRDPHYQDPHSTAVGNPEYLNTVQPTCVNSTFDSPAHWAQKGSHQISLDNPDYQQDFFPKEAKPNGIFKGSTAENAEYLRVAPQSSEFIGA
The subject of another data set is HUVEC. Kind of data set: Inhibition of basal unstimulated growth of human endothelial cell. Type of data set: functional, cell-based.
The target of data set [3] is Vascular endothelial growth factor receptor 1 (Homo sapiens, UniProt P17948). Kind of data set: Inhibition of fms-like tyrosine kinase receptor (Flt-1) kinase activity […] of ATP.
Chain of Vascular endothelial growth factor receptor 1 (P17948 whole entry): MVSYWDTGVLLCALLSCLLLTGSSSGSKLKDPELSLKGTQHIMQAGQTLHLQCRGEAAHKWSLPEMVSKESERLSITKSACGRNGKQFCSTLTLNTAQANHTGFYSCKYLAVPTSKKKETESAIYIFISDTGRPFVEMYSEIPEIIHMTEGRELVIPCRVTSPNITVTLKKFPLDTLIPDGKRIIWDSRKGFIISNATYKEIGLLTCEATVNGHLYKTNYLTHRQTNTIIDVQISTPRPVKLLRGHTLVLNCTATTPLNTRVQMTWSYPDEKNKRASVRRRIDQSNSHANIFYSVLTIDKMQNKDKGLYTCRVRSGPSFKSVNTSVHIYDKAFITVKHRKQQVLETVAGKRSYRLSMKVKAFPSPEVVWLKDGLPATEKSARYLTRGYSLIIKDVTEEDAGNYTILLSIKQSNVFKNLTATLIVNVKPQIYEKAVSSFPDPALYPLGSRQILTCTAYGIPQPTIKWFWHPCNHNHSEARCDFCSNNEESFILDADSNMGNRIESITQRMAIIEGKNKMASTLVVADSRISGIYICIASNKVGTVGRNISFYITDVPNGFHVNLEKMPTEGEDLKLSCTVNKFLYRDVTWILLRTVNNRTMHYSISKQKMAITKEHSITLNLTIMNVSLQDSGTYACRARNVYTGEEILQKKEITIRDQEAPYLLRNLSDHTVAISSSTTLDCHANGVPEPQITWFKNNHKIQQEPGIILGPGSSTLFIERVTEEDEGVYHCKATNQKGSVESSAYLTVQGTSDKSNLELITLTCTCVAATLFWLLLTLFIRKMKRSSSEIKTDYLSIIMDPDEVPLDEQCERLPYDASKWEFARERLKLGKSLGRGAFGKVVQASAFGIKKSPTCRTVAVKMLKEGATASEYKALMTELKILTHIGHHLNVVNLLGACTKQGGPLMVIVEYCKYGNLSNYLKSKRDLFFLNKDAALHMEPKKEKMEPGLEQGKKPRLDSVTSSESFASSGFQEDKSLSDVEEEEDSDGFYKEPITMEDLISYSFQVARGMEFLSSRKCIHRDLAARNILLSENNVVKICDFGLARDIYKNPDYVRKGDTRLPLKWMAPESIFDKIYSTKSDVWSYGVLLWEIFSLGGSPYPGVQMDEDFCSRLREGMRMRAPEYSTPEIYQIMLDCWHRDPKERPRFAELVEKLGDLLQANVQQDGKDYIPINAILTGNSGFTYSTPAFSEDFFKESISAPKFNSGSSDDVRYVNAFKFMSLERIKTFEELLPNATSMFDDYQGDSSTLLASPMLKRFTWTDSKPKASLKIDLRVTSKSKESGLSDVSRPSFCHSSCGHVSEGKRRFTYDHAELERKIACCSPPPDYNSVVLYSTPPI
Data set [4] deals with Vascular endothelial growth factor receptor (Homo sapiens, UniProt P17948+P35916+P35968). Kind of data set: Inhibition of human endothelial cell growth stimulate by vascular endothelial growth factor.
Data set [5] has as its target Vascular endothelial growth factor receptor 2 (Homo sapiens, UniProt P35968). Kind of data set: Inhibition of vascular endothelial growth factor receptor 2 kinase activity […].
Data set [6] in a line: Plasma levels following administration of 100 mg/Kg perorally and concentration in plasma 24 hr after administration. Type of data set: ADME, cell-free. The note with it: po, read-out: Plasma level.
A short description of data set [7]: Plasma levels following administration of 100 mg/Kg perorally and concentration in plasma 6 hr after administration. Type of data set: ADME, cell-free. The note with it: po, read-out: Plasma level.
Data set [8] is described as follows: Plasma levels following administration of 50 mg/Kg perorally and concentration in plasma 6 hr after administration. The note with it: po, read-out: Plasma level. It is filed as ADME, cell-free.
Data set [9] in a line: Plasma levels following administration of 50 mg/Kg perorally and concentration in plasma 24 hr after administration. It is filed as ADME, cell-free. The note with it: po, read-out: Plasma level.
The species entered for a further data set is Rattus norvegicus. In words: Binding affinity to serum protein in rat. It is filed as functional.
For another data set, the species on record is Mus musculus. In words: Binding affinity of serum protein in mouse. It is filed as functional, organism-based.
Another data set in a line: physchem. The note with it: octanol/water, pH 7.4.
Data set [10] in a line: pKa value at a pH of […].value ranges from […]-[…]. It is filed as physicochemical. The note with it: pH 7.4.
Data set [11] in a line: solubility was determined using free base at pH 7. It is filed as physicochemical. The note with it: buffer.

Chain of Vascular endothelial growth factor receptor 2 (P35968 whole entry): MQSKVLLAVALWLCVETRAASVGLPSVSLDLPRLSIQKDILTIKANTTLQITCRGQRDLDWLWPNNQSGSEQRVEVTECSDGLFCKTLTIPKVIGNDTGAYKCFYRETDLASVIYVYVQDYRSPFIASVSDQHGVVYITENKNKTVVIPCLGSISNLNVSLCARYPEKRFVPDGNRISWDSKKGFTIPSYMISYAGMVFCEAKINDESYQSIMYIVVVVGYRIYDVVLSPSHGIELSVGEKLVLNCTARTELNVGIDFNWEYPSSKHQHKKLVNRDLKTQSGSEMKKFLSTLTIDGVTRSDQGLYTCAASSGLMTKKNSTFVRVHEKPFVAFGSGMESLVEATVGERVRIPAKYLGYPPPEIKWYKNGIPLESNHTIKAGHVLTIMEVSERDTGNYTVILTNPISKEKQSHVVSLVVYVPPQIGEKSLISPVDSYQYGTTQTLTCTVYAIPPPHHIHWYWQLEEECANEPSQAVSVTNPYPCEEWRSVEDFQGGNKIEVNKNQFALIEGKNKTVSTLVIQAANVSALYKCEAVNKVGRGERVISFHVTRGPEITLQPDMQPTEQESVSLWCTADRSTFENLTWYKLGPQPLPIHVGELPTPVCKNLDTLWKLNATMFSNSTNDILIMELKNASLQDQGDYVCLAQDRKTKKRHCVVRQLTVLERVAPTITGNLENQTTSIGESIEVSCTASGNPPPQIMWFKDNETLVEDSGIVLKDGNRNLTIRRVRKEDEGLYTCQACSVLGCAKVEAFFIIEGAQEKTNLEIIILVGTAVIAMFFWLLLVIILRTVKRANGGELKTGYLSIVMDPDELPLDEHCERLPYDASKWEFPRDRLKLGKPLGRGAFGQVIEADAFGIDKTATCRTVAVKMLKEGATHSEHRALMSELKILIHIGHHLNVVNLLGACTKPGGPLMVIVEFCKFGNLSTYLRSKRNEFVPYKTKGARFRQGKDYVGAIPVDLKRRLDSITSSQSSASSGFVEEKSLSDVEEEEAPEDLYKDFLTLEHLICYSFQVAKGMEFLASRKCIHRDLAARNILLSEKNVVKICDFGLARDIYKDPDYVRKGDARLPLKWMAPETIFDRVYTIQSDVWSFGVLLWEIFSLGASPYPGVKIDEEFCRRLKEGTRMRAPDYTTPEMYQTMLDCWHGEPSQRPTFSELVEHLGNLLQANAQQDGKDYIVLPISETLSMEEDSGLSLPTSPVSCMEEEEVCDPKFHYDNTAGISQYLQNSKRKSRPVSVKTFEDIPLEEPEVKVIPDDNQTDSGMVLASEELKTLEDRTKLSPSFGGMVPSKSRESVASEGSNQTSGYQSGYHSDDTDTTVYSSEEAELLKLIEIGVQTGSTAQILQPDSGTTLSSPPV

Take `COc1cc2c(Nc3ccc(Cl)cc3F)ncnc2cc1OCC1CCNCC1.Cl`: the IC50 in data set [1] was 5 µM; in data set [2], 0.3 µM; in the data set on HUVEC, 5 µM; in data set [3], 1 µM; in data set [4], 0.06 µM; in data set [5], 0.05 µM.

Turning to `COc1cc2c(Nc3ccc(Cl)cc3F)ncnc2cc1OCCC1CCN(C)CC1`, the IC50 stood at 4.1 µM in data set [1]; 0.3 µM in data set [2]; 3 µM with HUVEC; 0.5 µM in data set [3]; 0.07 µM in [4]; 0.055 µM in data set [5].

As to `COc1cc2c(Nc3ccc(Br)cc3F)ncnc2cc1OCCC1CCNCC1`, the figures for the IC50 (in data set [1]; in the data set with HUVEC; in data set [5]) were 2.7 µM, 3 µM and 0.04 µM, respectively.

Take `COc1cc2c(Nc3c(F)cc(Cl)cc3F)ncnc2cc1OCC1CCNCC1`: the IC50 in data set [1] is 2.5 µM; in [2] it was 0.5 µM; in the data set on HUVEC, greater than 1 µM; in [3], 0.45 µM; in data set [4], 0.1 µM; in data set [5], 0.04 µM.

Take `COc1cc2c(Nc3c(F)cc(Br)cc3F)ncnc2cc1OCC1CCNCC1`: the IC50 in data set [1] was found to be 1.9 µM; in data set [2], 0.45 µM; in the data set with HUVEC, 3 µM; in data set [3] it was 0.8 µM; in data set [4], 0.07 µM; in data set [5], 0.015 µM.

In the case of `COc1cc2c(Nc3ccc(Cl)cc3F)ncnc2cc1OC/C=C/CN1CCCC1.Cl`, the IC50 in data set [1] turned out to be 1.9 µM; in data set [2] it was 0.09 µM; with HUVEC, 1 µM; in [3], 0.75 µM; in data set [4], 0.04 µM; in data set [5], 0.04 µM.

For the compound `COc1cc2c(Nc3ccc(C)cc3F)ncnc2cc1OCC1CCN(C)CC1`, the IC50 in data set [1] is 13.5 µM; in data set [2], 1 µM; with HUVEC, greater than 5 µM; in data set [3] it was 0.5 µM; in data set [4], 0.065 µM; in data set [5] it was 0.025 µM.

On to `COc1cc2c(Nc3ccc(Br)cc3F)ncnc2cc1OC[C@H]1CCCN(C)C1`, for which the IC50 came out at 5 µM in data set [1]; 1 µM in the data set with HUVEC; 0.5 µM in data set [3]; 0.04 µM in [4]; 0.01 µM in data set [5].

Turning to `COc1cc2c(Nc3ccc(Cl)cc3F)ncnc2cc1OCCN1CCN(C)CC1`, the IC50 worked out at 8 µM in [1]; 0.2 µM in data set [2]; 10 µM in the data set on HUVEC; 0.3 µM in data set [3]; 0.1 µM in data set [4]; 0.03 µM in data set [5].

With `COc1cc2c(Nc3ccc(Br)cc3F)ncnc2cc1OCCCN1CCN(C)CC1.Cl`, the IC50 in [1] was 2 µM; in data set [2], 0.1 µM; in the data set with HUVEC, greater than 1 µM; in [3] it was 0.55 µM; in data set [4] it was 0.03 µM; in [5], 0.009 µM.

Regarding `COc1cc2c(Nc3ccc(Cl)cc3F)ncnc2cc1OC1CCN(C)CC1`, the results for the IC50 in data set [1] and in data set [3] were 50 µM and 1.5 µM, respectively.

With `COc1cc2c(Nc3ccc(Br)cc3F)ncnc2cc1OC/C=C/CN1CCCC1.Cl`, the IC50 in data set [1] is 2.1 µM; in data set [2], 0.1 µM; in the data set on HUVEC it was 5 µM; in data set [3], 0.65 µM; in data set [4], 0.03 µM; in data set [5], 0.008 µM.

As to `COc1cc2c(Nc3ccc(Cl)cc3F)ncnc2cc1OCC1CCN(C)CC1.Cl`, the IC50 in data set [1] was 4.3 µM; in the data set with HUVEC, 5 µM; in data set [3], 2 µM; in data set [4] it was 0.05 µM; in [5], 0.015 µM.

In the case of `COc1cc2c(Nc3ccc(Cl)cc3F)ncnc2cc1OCCN(C)c1ccncc1`, the values for the IC50 (in data set [2]; with HUVEC; in data set [4]) were 0.3 µM, 5 µM and 0.2 µM, respectively. The concentration at 24 h in data set [6] amounted to 2000 nM. The concentration at 6 h in data set [7] was 4600 nM.

In the case of `COc1cc2c(Nc3ccc(Br)cc3F)ncnc2cc1OC[C@@H]1CCCN(C)C1`, the IC50 in data set [1] stood at 1.8 µM; with HUVEC it was 10 µM; in [3], 0.5 µM; in data set [4], 0.06 µM; in data set [5], 0.001 µM. Besides, the concentration at 6 h in [8] amounted to 5500 nM. The concentration at 24 h in data set [9] was found to be 2500 nM.

For the compound `COc1cc2c(Nc3cc(O)c(Cl)cc3F)ncnc2cc1OCC1CCN(C)CC1.Cl`, the IC50 in data set [1] is 0.9 µM; in data set [2], 0.1 µM; in the data set with HUVEC, 0.5 µM; in [3] it was 0.02 µM; in [4] it was 0.003 µM; in data set [5] it was 0.008 µM.

As to `COc1cc2c(Nc3ccc(Cl)cc3F)ncnc2cc1OCCCN1CCCC1.Cl`, the IC50 in [1] turned out to be 4.2 µM; in the data set on HUVEC, 5 µM; in data set [3] it was 0.2 µM; in data set [4], 0.008 µM; in [5], 0.03 µM.

Turning to `COc1cc2/c(=N/c3ccc(Br)cc3F)nc[nH]c2cc1OCC1CCN(C)CC1`, the SPB in the data set listed under Rattus norvegicus came out at 90%; in the data set filed under Mus musculus, 96%.

On to `COc1cc2c(Nc3ccc(Cl)cc3F)ncnc2cc1OCCN1CCOCC1`, for which the figures for the IC50 (in data set [2]; in the data set with HUVEC; in [4]) were 0.4 µM, 5 µM and 0.3 µM, respectively. Further, the concentration at 24 h in data set [6] was 500 nM. Besides, the concentration at 6 h in [7] was 12000 nM.

Turning to `COc1cc2c(Nc3cc(O)c(C)cc3F)ncnc2cc1OCC1CCN(C)CC1.Cl`, the IC50 in [1] worked out at 1.5 µM; in data set [2] it was 0.3 µM; in the data set with HUVEC it was 0.8 µM; in data set [3], 0.025 µM; in data set [4], 0.03 µM; in data set [5] it was 0.007 µM.

For the compound `COc1cc2c(Nc3ccc(Br)cc3F)ncnc2cc1OCCC1CCN(C)CC1`, the IC50 in data set [1] was 2.1 µM; in the data set with HUVEC, 3 µM; in data set [5] it was 0.006 µM. Further, the concentration at 6 h in data set [8] worked out at 3000 nM. Besides, the concentration at 24 h in [9] came to 2000 nM.

On to `COc1cc2c(Nc3ccc(Cl)cc3F)ncnc2cc1OC[C@@H]1CCCN(C)C1`, for which the IC50 in data set [1] came out at 1.8 µM; in [2], 0.1 µM; with HUVEC, 5 µM; in [3], 0.7 µM; in data set [4], 0.08 µM; in data set [5], 0.005 µM.

For `COCCOc1cc2ncnc(Nc3ccc(Cl)cc3F)c2cc1OC`, the IC50 is 0.1 µM in data set [2], 5 µM in the data set with HUVEC and 0.04 µM in [4]. The concentration at 24 h in [6] was less than 100 nM. Moreover, the concentration at 6 h in [7] worked out at 12000 nM.

Consider `COc1cc2c(Nc3ccc(Cl)cc3F)ncnc2cc1OCCCN1CCN(C)CC1.Cl`, for which the IC50 is 2.1 µM in data set [1]; 0.075 µM in data set [2]; 5 µM with HUVEC; 0.6 µM in data set [3]; 0.05 µM in data set [4]; 0.02 µM in data set [5]. Besides, the concentration at 6 h in data set [8] is 5000 nM. The compound also returned a logD in the data set “physchem” of 2.4. For the same compound, the pKa in [10] was 7.9. This compound also registered a solubility in data set [11] of 60 µM. Further, the concentration at 24 h in data set [9] is 3000 nM.

Regarding `COc1cc2c(Nc3c(F)cc(Cl)cc3F)ncnc2cc1OCC1CCN(C)CC1`, the IC50 in data set [1] was 1.7 µM; with HUVEC it was greater than 5 µM; in [5], 0.025 µM.

For the compound `COc1cc2c(Nc3c(F)cc(Br)cc3F)ncnc2cc1OCC1CCN(C)CC1`, the IC50 was 1.5 µM in [1]; 0.3 µM in data set [2]; greater than 1 µM with HUVEC; 0.5 µM in data set [3]; 0.1 µM in data set [4]; 0.01 µM in data set [5].

`COc1cc2c(Nc3ccc(C)cc3F)ncnc2cc1OCC1CCNCC1`: the IC50 in [1] was 12.3 µM; in data set [2], 0.5 µM; in the data set on HUVEC, greater than 5 µM; in data set [3] it was 0.7 µM; in data set [4], 0.25 µM; in [5], 0.03 µM.

For the compound `COc1cc2c(Nc3ccc(C#N)cc3F)ncnc2cc1OC/C=C/CN1CCCC1`, the IC50 was determined as 19 µM in [1]; 0.8 µM in data set [2]; 10 µM with HUVEC; 3.9 µM in [3]; 0.5 µM in [4]; 0.23 µM in [5].
